Experimental data taken from ChEMBL document CHEMBL3272271, “Folate antagonists. 13. 2,4-Diamino-6-](alpha,alpha,alpha-trifluoro-m-tolyl)thio]quinazoline and related 2,4-diamino-6-[(phenyl- and naphthyl)thio]quinazolines, a unique class of antimetabolites with extraordinary antimalarial and antibacterial effects” (J Med Chem, 1978).
Values after ≈ are worked out from the molar mass of the structure shown. Active and inactive are the calls of the source. No cut-off for these calls is given here.

Assays:
[1] = test system: Plasmodium gallinaceum; test: Antimalarial activity against sporozoite-induced Plasmodium gallinaceum infected in white leghorn chicken assessed as disease cure from parasite infection at 15 mg/kg, sc administered 72 hrs after infection; assay type: functional, organism-based; parameters: dose 15 mg/kg
[2] = test system: Mycobacterium tuberculosis; test: Antibacterial activity against Mycobacterium tuberculosis H37Ra by gradient plate test; assay type: functional
[3] = test system: Staphylococcus aureus; test: Antibacterial activity against drug-resistant Staphylococcus aureus S18713 by gradient plate test; assay type: functional
[4] = test system: Staphylococcus aureus; test: Antibacterial activity against Staphylococcus aureus UC-96 by gradient plate test; assay type: functional
[5] = test system: Plasmodium berghei; test: Antimalarial activity against Plasmodium berghei infected in mouse assessed as increase in mean survival days of host at 40 mg/kg, sc administered 72 hrs after infection relative to control; assay type: functional; settings: route subcutaneous
[6] = test system: Plasmodium berghei; test: Antimalarial activity against Plasmodium berghei infected in mouse assessed as increase in mean survival days of host at 320 mg/kg, sc administered 72 hrs after infection relative to control; assay type: functional; settings: route subcutaneous
[7] = test system: Plasmodium gallinaceum; test: Antimalarial activity against sporozoite-induced Plasmodium gallinaceum infected in white leghorn chicken assessed as disease cure from parasite infection at 30 mg/kg, sc administered 72 hrs after infection; assay type: functional, organism-based; parameters: dose 30 mg/kg
[8] = test system: Plasmodium gallinaceum; test: Antimalarial activity against sporozoite-induced Plasmodium gallinaceum infected in white leghorn chicken assessed as increase in mean survival days of host at 60 mg/kg, sc administered 72 hrs after infection relative to control; assay type: functional; settings: route subcutaneous
[9] = test system: Plasmodium berghei; test: Antimalarial activity against Plasmodium berghei infected in mouse assessed as disease cure from parasite infection at 640 mg/kg, sc administered 72 hrs after infection; assay type: functional, organism-based; parameters: dose 640 mg/kg
[10] = test system: Plasmodium gallinaceum; test: Antimalarial activity against sporozoite-induced Plasmodium gallinaceum infected in white leghorn chicken assessed as disease cure from parasite infection at 60 mg/kg, sc administered 72 hrs after infection; assay type: functional, organism-based; parameters: dose 60 mg/kg
[11] = test system: Plasmodium gallinaceum; test: Antimalarial activity against sporozoite-induced Plasmodium gallinaceum infected in white leghorn chicken assessed as disease cure from parasite infection at 120 mg/kg, sc administered 72 hrs after infection; assay type: functional, organism-based; parameters: dose 120 mg/kg
[12] = test system: Plasmodium gallinaceum; test: Antimalarial activity against sporozoite-induced Plasmodium gallinaceum infected in white leghorn chicken assessed as disease cure from parasite infection at 240 mg/kg, sc administered 72 hrs after infection; assay type: functional, organism-based; parameters: dose 240 mg/kg
[13] = test system: Plasmodium berghei; test: Antimalarial activity against Plasmodium berghei infected in mouse assessed as increase in mean survival days of host at 10 mg/kg, sc administered 72 hrs after infection relative to control; assay type: functional; settings: route subcutaneous
[14] = test system: Plasmodium gallinaceum; test: Antimalarial activity against sporozoite-induced Plasmodium gallinaceum infected in white leghorn chicken assessed as increase in mean survival days of host at 30 mg/kg, sc administered 72 hrs after infection relative to control; assay type: functional; settings: route subcutaneous
[15] = test system: Escherichia coli; test: Antibacterial activity against Escherichia coli Vogel by gradient plate test; assay type: functional
[16] = test system: Plasmodium berghei; test: Antimalarial activity against Plasmodium berghei infected in mouse assessed as increase in mean survival days of host at 80 mg/kg, sc administered 72 hrs after infection relative to control; assay type: functional; settings: route subcutaneous
[17] = test system: Shigella sonnei; test: Antibacterial activity against Shigella sonnei C-10 by gradient plate test; assay type: functional
[18] = test system: Enterococcus faecalis; test: Antibacterial activity against Streptococcus faecalis MGH-2 by gradient plate test; assay type: functional
[19] = test system: Plasmodium berghei; test: Antimalarial activity against Plasmodium berghei infected in mouse assessed as increase in mean survival days of host at 20 mg/kg, sc administered 72 hrs after infection relative to control; assay type: functional; settings: route subcutaneous
[20] = test system: Pseudomonas aeruginosa; test: Antibacterial activity against Pseudomonas aeruginosa 28 by gradient plate test; assay type: functional
[21] = test system: Plasmodium gallinaceum; test: Antimalarial activity against sporozoite-induced Plasmodium gallinaceum infected in white leghorn chicken assessed as increase in mean survival days of host at 15 mg/kg, sc administered 72 hrs after infection relative to control; assay type: functional; settings: route subcutaneous
[22] = test system: Plasmodium berghei; test: Antimalarial activity against Plasmodium berghei infected in mouse assessed as increase in mean survival days of host at 160 mg/kg, sc administered 72 hrs after infection relative to control; assay type: functional; settings: route subcutaneous
[23] = test system: Plasmodium berghei; test: Antimalarial activity against Plasmodium berghei infected in mouse assessed as increase in mean survival days of host at 640 mg/kg, sc administered 72 hrs after infection relative to control; assay type: functional; settings: route subcutaneous
[24] = test system: Plasmodium gallinaceum; test: Antimalarial activity against sporozoite-induced Plasmodium gallinaceum infected in white leghorn chicken assessed as disease cure from parasite infection at 480 mg/kg, sc administered 72 hrs after infection; assay type: functional, organism-based; parameters: dose 480 mg/kg
[25] = test system: Plasmodium berghei; test: Antimalarial activity against Plasmodium berghei infected in mouse assessed as disease cure from parasite infection at 80 mg/kg, sc administered 72 hrs after infection; assay type: functional, organism-based; parameters: dose 80 mg/kg
[26] = test system: Plasmodium gallinaceum; test: Antimalarial activity against trophozoite-induced Plasmodium gallinaceum infected in white leghorn chicken assessed as increase in mean survival days of host at 1.25 mg/kg, sc administered 72 hrs after infection relative to control; assay type: functional; settings: route subcutaneous
[27] = test system: Plasmodium berghei; test: Antimalarial activity against Plasmodium berghei infected in mouse assessed as increase in mean survival days of host at 1.25 mg/kg, sc administered 72 hrs after infection relative to control; assay type: functional; settings: route subcutaneous
[28] = test system: Plasmodium gallinaceum; test: Antimalarial activity against trophozoite-induced Plasmodium gallinaceum infected in white leghorn chicken assessed as increase in mean survival days of host at 0.63 mg/kg, sc administered 72 hrs after infection relative to control; assay type: functional; settings: route subcutaneous
[29] = test system: Plasmodium gallinaceum; test: Antimalarial activity against sporozoite-induced Plasmodium gallinaceum infected in white leghorn chicken assessed as disease cure from parasite infection at 20 mg/kg, sc administered 72 hrs after infection; assay type: functional, organism-based; parameters: dose 20 mg/kg
[30] = test system: Plasmodium berghei; test: Ratio of quinine hydrochloride SD90 to compound SD90 for trophozoite-induced Plasmodium berghei infected in mouse assessed as daily dose required to suppression of 90% parasite infection administered with diet for 6 days; assay type: functional
[31] = test system: Plasmodium berghei; test: Antimalarial activity against Plasmodium berghei infected in mouse assessed as increase in mean survival days of host at 2.5 mg/kg, sc administered 72 hrs after infection relative to control; assay type: functional; settings: route subcutaneous
[32] = test system: Plasmodium gallinaceum; test: Antimalarial activity against sporozoite-induced Plasmodium gallinaceum infected in white leghorn chicken assessed as disease cure from parasite infection at 160 mg/kg, sc administered 72 hrs after infection; assay type: functional, organism-based; parameters: dose 160 mg/kg
[33] = test system: Plasmodium berghei; test: Antimalarial activity against Plasmodium berghei infected in mouse assessed as disease cure from parasite infection at 320 mg/kg, sc administered 72 hrs after infection; assay type: functional, organism-based; parameters: dose 320 mg/kg
[34] = test system: Plasmodium berghei; test: Antimalarial activity against Plasmodium berghei infected in mouse assessed as disease cure from parasite infection at 40 mg/kg, sc administered 72 hrs after infection; assay type: functional, organism-based; parameters: dose 40 mg/kg
[35] = test system: Plasmodium gallinaceum; test: Antimalarial activity against trophozoite-induced Plasmodium gallinaceum infected in white leghorn chicken assessed as disease cure from parasite infection at 320 mg/kg, sc administered 72 hrs after infection; assay type: functional, organism-based; parameters: dose 320 mg/kg
[36] = test system: Plasmodium berghei; test: Antimalarial activity against Plasmodium berghei infected in mouse assessed as disease cure from parasite infection at 10 mg/kg, sc administered 72 hrs after infection; assay type: functional, organism-based; parameters: dose 10 mg/kg
[37] = test system: Plasmodium gallinaceum; test: Antimalarial activity against sporozoite-induced Plasmodium gallinaceum infected in white leghorn chicken assessed as disease cure from parasite infection at 320 mg/kg, sc administered 72 hrs after infection; assay type: functional, organism-based; parameters: dose 320 mg/kg
[38] = test system: Plasmodium gallinaceum; test: Antimalarial activity against trophozoite-induced Plasmodium gallinaceum infected in white leghorn chicken assessed as increase in mean survival days of host at 2.5 mg/kg, sc administered 72 hrs after infection relative to control; assay type: functional; settings: route subcutaneous
[39] = test system: Plasmodium gallinaceum; test: Antimalarial activity against trophozoite-induced Plasmodium gallinaceum infected in white leghorn chicken assessed as disease cure from parasite infection at 160 mg/kg, sc administered 72 hrs after infection; assay type: functional, organism-based; parameters: dose 160 mg/kg
[40] = test system: Plasmodium gallinaceum; test: Antimalarial activity against trophozoite-induced Plasmodium gallinaceum infected in white leghorn chicken assessed as increase in mean survival days of host at 20 mg/kg, sc administered 72 hrs after infection relative to control; assay type: functional; settings: route subcutaneous
[41] = test system: Plasmodium gallinaceum; test: Antimalarial activity against trophozoite-induced Plasmodium gallinaceum infected in white leghorn chicken assessed as disease cure from parasite infection at 80 mg/kg, sc administered 72 hrs after infection; assay type: functional, organism-based; parameters: dose 80 mg/kg
[42] = test system: Plasmodium berghei; test: Antimalarial activity against Plasmodium berghei infected in mouse assessed as disease cure from parasite infection at 20 mg/kg, sc administered 72 hrs after infection; assay type: functional, organism-based; parameters: dose 20 mg/kg
[43] = test system: Plasmodium gallinaceum; test: Antimalarial activity against sporozoite-induced Plasmodium gallinaceum infected in white leghorn chicken assessed as disease cure from parasite infection at 40 mg/kg, sc administered 72 hrs after infection; assay type: functional, organism-based; parameters: dose 40 mg/kg
[44] = test system: Plasmodium gallinaceum; test: Antimalarial activity against sporozoite-induced Plasmodium gallinaceum infected in white leghorn chicken assessed as disease cure from parasite infection at 80 mg/kg, sc administered 72 hrs after infection; assay type: functional, organism-based; parameters: dose 80 mg/kg
[45] = test system: Plasmodium gallinaceum; test: Antimalarial activity against trophozoite-induced Plasmodium gallinaceum infected in white leghorn chicken assessed as increase in mean survival days of host at 10 mg/kg, sc administered 72 hrs after infection relative to control; assay type: functional; settings: route subcutaneous
[46] = test system: Plasmodium berghei; test: Antimalarial activity against trophozoite-induced Plasmodium berghei infected in mouse assessed as daily dose required to suppression of 90% parasite infection administered with diet for 6 days; assay type: functional
[47] = test system: Plasmodium gallinaceum; test: Antimalarial activity against sporozoite-induced Plasmodium gallinaceum infected in white leghorn chicken assessed as increase in mean survival days of host at 10 mg/kg, sc administered 72 hrs after infection relative to control; assay type: functional; settings: route subcutaneous
[48] = test system: Plasmodium gallinaceum; test: Antimalarial activity against trophozoite-induced Plasmodium gallinaceum infected in white leghorn chicken assessed as increase in mean survival days of host at 40 mg/kg, sc administered 72 hrs after infection relative to control; assay type: functional; settings: route subcutaneous
[49] = test system: Plasmodium gallinaceum; test: Antimalarial activity against trophozoite-induced Plasmodium gallinaceum infected in white leghorn chicken assessed as increase in mean survival days of host at 80 mg/kg, sc administered 72 hrs after infection relative to control; assay type: functional; settings: route subcutaneous
[50] = test system: Plasmodium gallinaceum; test: Antimalarial activity against sporozoite-induced Plasmodium gallinaceum infected in white leghorn chicken assessed as disease cure from parasite infection at 10 mg/kg, sc administered 72 hrs after infection; assay type: functional, organism-based; parameters: dose 10 mg/kg
[51] = test system: Plasmodium berghei; test: Antimalarial activity against Plasmodium berghei infected in mouse assessed as disease cure from parasite infection at 160 mg/kg, sc administered 72 hrs after infection; assay type: functional, organism-based; parameters: dose 160 mg/kg
[52] = test system: Plasmodium gallinaceum; test: Antimalarial activity against trophozoite-induced Plasmodium gallinaceum infected in white leghorn chicken assessed as increase in mean survival days of host at 5 mg/kg, sc administered 72 hrs after infection relative to control; assay type: functional; settings: route subcutaneous
[53] = test system: Plasmodium berghei; test: Antimalarial activity against Plasmodium berghei infected in mouse assessed as increase in mean survival days of host at 5 mg/kg, sc administered 72 hrs after infection relative to control; assay type: functional; settings: route subcutaneous

Nc1nc(N)c2cc(Sc3ccccc3-c3ccccc3)ccc2n1
Activity [1]: Active | MIC [2]: 20 µg/mL (≈ 58.1 µM) | MIC [3]: < 0.25 µg/mL | MIC [4]: < 0.25 µg/mL | MST [5]: 0.5 days | MST [6]: 12.5 days | Activity [7]: Active | MST [8]: 0 days | Activity [9]: Active | Activity [10]: Active | Activity [11]: Active | Activity [12]: Active | MST [13]: 0.3 days | MST [14]: 0 days | MIC [15]: 2.5 µg/mL (≈ 7.26 µM) | MST [16]: 3.3 days | MIC [17]: > 25 µg/mL | MIC [18]: < 0.25 µg/mL | MST [19]: 0.5 days | MIC [20]: > 25 µg/mL | MST [21]: 0 days | MST [22]: 5.7 days | MST [23]: 16.4 days | Activity [24]: Active

Cc1ccc(Cl)cc1Sc1ccc2nc(N)nc(N)c2c1
Activity [25]: Active | MST [26]: 0 days | MST [27]: 2.7 days | MST [28]: 0 days | Activity [29]: Active | Ratio [30]: 170 | MST [31]: 4.1 days | Activity [32]: Active | Activity [33]: Active | MIC [3]: < 0.25 µg/mL | MIC [4]: < 0.25 µg/mL | Activity [34]: Active | MST [5]: 25.7 days | Activity [35]: Active | Activity [9]: Active | Activity [36]: Active | Activity [37]: Active | MST [38]: 1.4 days | Activity [39]: Active | MST [40]: 7.4 days | Activity [41]: Active | MST [13]: 8.8 days | MIC [15]: < 0.25 µg/mL | Activity [42]: Active | Activity [43]: Active | Activity [44]: Active | MST [45]: 5.8 days | SD90 [46]: 0.43 mg/kg/day | MIC [17]: 1.5 µg/mL (≈ 4.73 µM) | MST [47]: 7 days | MIC [18]: < 0.25 µg/mL | MST [19]: 17.8 days | MST [48]: 7.8 days | MST [49]: 18 days | MIC [20]: > 25 µg/mL | Activity [50]: Active | Activity [51]: Active | MST [52]: 3.6 days | MST [53]: 9.5 days
